Test results taken from patent US5958973A, “Polyhydroxy benzoic acid derivatives and their use as neuraminidase inhibitors” (Gilead Sciences, Inc., priority 1995, dated 1999).

Target: neuraminidase
Type: biochemical
Settings: in vitro enzyme inhibition; class symbols
Description: Compositions of the invention are screened for inhibitory activity against neuraminidase by any of the conventional techniques for evaluating enzyme activity. […] Useful in vitro screens have been described in detail and will not be elaborated here.

| Compound | IC50 |
| --- | --- |
| CCc1cc(C(=O)O)cc(NC(=N)N)c1NC(C)=O [Compound 213] | 75 to 100 µM |
| N=C(N)Nc1cc(C(=O)O)ccc1NC(=O)C(F)(F)F [Compound 208] | 20 to 75 µM |
